Source: patent publication US9440910B2, “Reference markers for fesoterodine fumarate” (ALEMBIC PHARMACEUTICALS LIMITED, priority 2012, dated 2016)
Where a name gives a salt, the structure may show the parent alone.

Tests used:
Assay type in all cases: physicochemical
[1] = Stability Study of Fesoterodine Fumarate at 2-8° C.
Procedure: (§1) Present inventors carried out the stability study of Fesoterodine Fumarate at different conditions and summarized the table shown below which easily indicate how the impurity at 1.82 RRT is increasingly generated.
Stability Study of Fesoterodine Fumarate at 2-8° C.
(§2) The LC system, used for method development and forced degradation studies and method validation was Waters-Alliance (manufactured by Waters India Ltd) LC system with a photo diode detector. The out put signal was monitored and processed using Empower software system (designed by Waters India) on IBM computer (Digital Equipment Co). • The chromatographic column used was a Waters Aquity BEH C18 100 mm×2.1 mm column with 1.7 μm particles. The mobile phase consists buffer (1.4 g of Disodium hydrogen phosphate in 1000 mL of water pH-8.0 with ortho phosphoric acid), and solvent is acetonitrile. The flow rate of the mobile phase was kept at 0.3 ml/min. beginning with the gradient ratio of mobile phase buffer and solvent 50:50 (v/v), system was continued at the same ratio for 2 minutes. The ratio was changed linearly 30:70(v/v) within 7 minutes and again system was continued at the same ratio for 9 minutes. After 1.5 minutes the initial gradient of 50:50 is for 2.5 minutes to be conditioned far every analysis. The column temperature was maintained at 45° C. and the wavelength was monitored at a wavelength of 220 nm. The injection volume was 3 μL for related substances determination. Acetonitrile was used as diluent during the standard, and test samples preparation.

[2] = Stability Study of Fesoterodine Fumarate at 30° C.+/−2° C. 65%+/−5% RH
Procedure: as §1
Stability Study of Fesoterodine Fumarate at 30° C.+/−2° C. 65%+/−5% RH
as §2

[3] = Stability Study of Fesoterodine Fumarate at 25° C.+/−2° C. 60%+/−5% RH
Procedure: as §1
Stability Study of Fesoterodine Fumarate at 25° C.+/−2° C. 60%+/−5% RH
as §2

[4] = Stability Study of Fesoterodine Fumarate at 40° C.+/−2° C. 75%+/−5% RH
Procedure: as §1
Stability Study of Fesoterodine Fumarate at 40° C.+/−2° C. 75%+/−5% RH
as §2

[5] = Analysis of the stability samples of fesoterodine fumarate; conditions: after 2-6 months stability at 25° C. and above temperature; not observed during initial analysis
Procedure: During analysis of the stability samples of fesoterodine fumarate, after 2-6 months stability at 25° C. and above temperature, the unknown impurity (1.82 RRT) detected which was not observed during initial analysis.
as §2, with “The injection volume was 3 μL for related substances determination. Acetonitrile was used as diluent during the standard, and test samples preparation.” left out

0.29 RRT (Fumaric acid ester) ([1]; 3 month): 0.04%
Dihydroxy impurity (active metabolite) ([1]; 3 month): 0.11%
Purity of Fesoterodine fumarate ([1]; 3 month): 99.61%
0.29 RRT (Fumaric acid ester) ([1]; 6 month): 0.05%
Dihydroxy impurity (active metabolite) ([1]; 6 month): 0.15%
Purity of Fesoterodine fumarate ([1]; 6 month): 99.52%
0.29 RRT (Fumaric acid ester) ([1]; Initial): 0.03%
Dihydroxy impurity (active metabolite) ([1]; Initial): 0.07%
Purity of Fesoterodine fumarate ([1]; Initial): 99.69%
0.29 RRT (Fumaric acid ester) ([2]; 1 month): 0.06%
Dihydroxy impurity (active metabolite) ([2]; 1 month): 0.23%
Purity of Fesoterodine fumarate ([2]; 1 month): 99.43%
0.29 RRT (Fumaric acid ester) ([2]; 2 month): 0.09%
1.82 RRT ([2]; 2 month): 0.02%
Dihydroxy impurity (active metabolite) ([2]; 2 month): 0.45%
Purity of Fesoterodine fumarate ([2]; 2 month): 99.15%
0.29 RRT (Fumaric acid ester) ([2]; 3 month): 0.10%
1.82 RRT ([2]; 3 month): 0.07%
Dihydroxy impurity (active metabolite) ([2]; 3 month): 0.71%
Purity of Fesoterodine fumarate ([2]; 3 month): 98.84%
0.29 RRT (Fumaric acid ester) ([2]; 4 month): 0.09%
1.82 RRT ([2]; 4 month): 0.11%
Dihydroxy impurity (active metabolite) ([2]; 4 month): 0.76%
Purity of Fesoterodine fumarate ([2]; 4 month): 98.74%
0.29 RRT (Fumaric acid ester) ([2]; Initial): 0.03%
Dihydroxy impurity (active metabolite) ([2]; Initial): 0.07%
Purity of Fesoterodine fumarate ([2]; Initial): 99.69%
0.29 RRT (Fumaric acid ester) ([3]; 1 month): 0.05%
Dihydroxy impurity (active metabolite) ([3]; 1 month): 0.15%
Purity of Fesoterodine fumarate ([3]; 1 month): 99.52%
0.29 RRT (Fumaric acid ester) ([3]; 2 month): 0.07%
Dihydroxy impurity (active metabolite) ([3]; 2 month): 0.27%
Purity of Fesoterodine fumarate ([3]; 2 month): 99.38%
0.29 RRT (Fumaric acid ester) ([3]; 3 month): 0.08%
1.82 RRT ([3]; 3 month): 0.01%
Dihydroxy impurity (active metabolite) ([3]; 3 month): 0.40%
Purity of Fesoterodine fumarate ([3]; 3 month): 99.25%
0.29 RRT (Fumaric acid ester) ([3]; 4 month): 0.07%
1.82 RRT ([3]; 4 month): 0.02%
Dihydroxy impurity (active metabolite) ([3]; 4 month): 0.53%
Purity of Fesoterodine fumarate ([3]; 4 month): 99.11%
0.29 RRT (Fumaric acid ester) ([3]; 6 month): 0.12%
1.82 RRT ([3]; 6 month): 0.11%
Dihydroxy impurity (active metabolite) ([3]; 6 month): 1.02
Purity of Fesoterodine fumarate ([3]; 6 month): 98.42%
0.29 RRT (Fumaric acid ester) ([3]; Initial): 0.03%
Dihydroxy impurity (active metabolite) ([3]; Initial): 0.07%
Purity of Fesoterodine fumarate ([3]; Initial): 99.69%
0.29 RRT 0.29 RRT (Fumaric acid ester) ([4]; 1 month): 0.10%
1.82 RRT ([4]; 1 month): 0.06%
Dihydroxy impurity (active metabolite) ([4]; 1 month): 0.64%
Purity of Fesoterodine fumarate ([4]; 1 month): 98.92%
0.29 RRT 0.29 RRT (Fumaric acid ester) ([4]; Initial): 0.03%
Dihydroxy impurity (active metabolite) ([4]; Initial): 0.07%
Purity of Fesoterodine fumarate ([4]; Initial): 99.69%
unknown impurity (1.82 RRT) [5]: detected
SMILES: CC(C)C(=O)Oc1ccc(CO)cc1[C@H](CCN(C(C)C)C(C)C)c1ccccc1 [Fesoterodine Fumarate, [2-[(1R)-3-(Di(propan-2-yl)amino)-1-phenylpropyl]-4-(hydroxymethyl)phenyl]2-methylpropanoate]
